Experimental data: ChEMBL document CHEMBL1201862, “PubChem BioAssay data set” (2004)
Active and inactive are the calls of the source.

Columns and labels:
[1] = THP-1 cell cytotoxicity, cytotoxicity control, set 4 (AID 504911); assay type: functional; details: Mycobacterium tuberculosis
[2] = microbe, parasite or virus in culture; assay type: functional; details: Mycobacterium tuberculosis
[3] = A Cell Based Secondary Assay to Explore Cytotoxicity in HepG2 Cells of Compounds that Modulate Mycobacterium tuberculosis in Media Containing Glycerol versus Media without Glycerol (2).; assay type: functional
[4] = Vero cell cytotoxicity, dose response, cytotoxicity control for M. tuberculosis growth inhibitor project, Vero cells, purified and synthesized compounds, set 4 (AID 504854); assay type: functional; details: Mycobacterium tuberculosis
[5] = HepG2 cell cytotoxicity, dose response, cytotoxicity control, set 3 (AID 504853); assay type: functional; details: Mycobacterium tuberculosis
[6] = HepG2 cell cytotoxicity, cytotoxicity control, set 4 (AID 504910); assay type: functional; details: Mycobacterium tuberculosis
[7] = THP-1 cell cytotoxicity, dose response, cytotoxicity control, set 3 (AID 504852); assay type: functional; details: Mycobacterium tuberculosis
[8] = A Cell Based Secondary Assay to Explore Cytotoxicity in THP-1 Cells of Compounds that Modulate Mycobacterium tuberculosis in Media Containing Glycerol versus Media without Glycerol (2).; assay type: functional
[9] = Vero cell cytotoxicity, dose response, cytotoxicity control for M. tuberculosis growth inhibitor project, Vero cells, purified and synthesized compounds, set 5 (AID 504909); assay type: functional; details: Mycobacterium tuberculosis
[10] = viability loss of HMLE_sh_eGFP cells – cell-based, luminescence, counter-screen for HMLE_sh_ECad selective toxicity project, dose response (AID 463074); assay type: functional, Homo sapiens;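 note: HMLE human mammary epithelial cells expressing control shRNA against eGFP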
[11] = Luminescence Cell-Based Dose Retest to Confirm Inhibitors of Cancer Stem Cells. [Related pubchem assays (depositor defined):AID2717, AID2721]; assay type: functional; details: Homo sapiens
[12] = Vero cell cytotoxicity, cytotoxicity control for M. tuberculosis inhibitor project, purified and synthesized samples, set 3 (AID 504684); assay type: functional
[13] = biological target: Melanin-concentrating hormone receptor 1 (Homo sapiens, UniProt Q99705); assay: Late-stage fluorescence-based counterscreen for antagonists of the G-protein coupled receptor 7 (GPR7): cell-based dose response assay to identify antagonists of the melanin-concentrating hormone receptor 1 (MCHR1) Set 6.; assay type: functional
Melanin-concentrating hormone receptor 1, sequence (Q99705 whole entry): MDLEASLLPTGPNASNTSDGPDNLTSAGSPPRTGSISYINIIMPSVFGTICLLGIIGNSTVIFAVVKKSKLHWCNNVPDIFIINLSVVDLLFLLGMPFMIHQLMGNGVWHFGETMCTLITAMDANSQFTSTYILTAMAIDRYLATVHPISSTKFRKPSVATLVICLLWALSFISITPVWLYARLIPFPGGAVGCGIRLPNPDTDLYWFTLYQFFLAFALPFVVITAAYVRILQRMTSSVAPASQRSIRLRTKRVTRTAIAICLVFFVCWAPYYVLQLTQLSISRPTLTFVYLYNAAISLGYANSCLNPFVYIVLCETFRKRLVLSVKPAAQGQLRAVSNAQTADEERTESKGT

[14] = biological target: Neuropeptides B/W receptor type 1 (Homo sapiens, UniProt P48145); assay: human NPBW1 receptor blockade, IC50 – cell-based, fluorescence, dose response, set 6, late-stage follow-up (AID 588583); assay type: functional
Neuropeptides B/W receptor type 1, sequence (P48145 whole entry): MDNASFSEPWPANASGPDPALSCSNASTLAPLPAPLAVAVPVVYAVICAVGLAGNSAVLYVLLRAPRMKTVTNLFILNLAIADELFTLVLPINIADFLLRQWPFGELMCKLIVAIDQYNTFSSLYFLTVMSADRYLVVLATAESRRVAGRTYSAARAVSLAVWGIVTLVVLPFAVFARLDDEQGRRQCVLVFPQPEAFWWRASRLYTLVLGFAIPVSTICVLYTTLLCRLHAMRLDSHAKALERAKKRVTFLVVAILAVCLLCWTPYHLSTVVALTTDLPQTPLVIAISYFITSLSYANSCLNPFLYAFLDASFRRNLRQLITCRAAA

[15] = biological target: T1, Alkaline phosphatase, tissue-nonspecific isozyme (Homo sapiens, UniProt P05186); assay: TNAP enzyme inhibition by screening hits, dose response, selectivity assay for mouse IAP inhibitor project, biochemical, human TNAP, uHTS hits (AID 488906); assay type: functional
T1 sequence (P05186 whole entry): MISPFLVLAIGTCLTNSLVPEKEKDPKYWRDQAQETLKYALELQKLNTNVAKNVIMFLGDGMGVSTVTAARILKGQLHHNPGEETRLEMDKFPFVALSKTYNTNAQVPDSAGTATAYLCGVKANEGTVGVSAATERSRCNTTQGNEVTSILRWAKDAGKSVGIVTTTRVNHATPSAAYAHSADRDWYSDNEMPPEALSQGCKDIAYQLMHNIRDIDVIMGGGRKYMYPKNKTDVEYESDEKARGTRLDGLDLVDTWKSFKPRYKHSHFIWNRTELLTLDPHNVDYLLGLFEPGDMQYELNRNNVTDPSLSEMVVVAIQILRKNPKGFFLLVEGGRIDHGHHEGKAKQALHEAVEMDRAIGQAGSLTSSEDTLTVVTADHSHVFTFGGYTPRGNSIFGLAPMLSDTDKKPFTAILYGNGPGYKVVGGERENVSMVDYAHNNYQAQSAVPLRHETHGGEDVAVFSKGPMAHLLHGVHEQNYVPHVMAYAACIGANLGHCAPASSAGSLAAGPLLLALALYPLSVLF

[16] = biological target: Intestinal-type alkaline phosphatase (Mus musculus, UniProt P24822); assay: PubChem AID 488785; assay type: functional
Intestinal-type alkaline phosphatase (Mus musculus, UniProt P24822), sequence (P24822 whole entry): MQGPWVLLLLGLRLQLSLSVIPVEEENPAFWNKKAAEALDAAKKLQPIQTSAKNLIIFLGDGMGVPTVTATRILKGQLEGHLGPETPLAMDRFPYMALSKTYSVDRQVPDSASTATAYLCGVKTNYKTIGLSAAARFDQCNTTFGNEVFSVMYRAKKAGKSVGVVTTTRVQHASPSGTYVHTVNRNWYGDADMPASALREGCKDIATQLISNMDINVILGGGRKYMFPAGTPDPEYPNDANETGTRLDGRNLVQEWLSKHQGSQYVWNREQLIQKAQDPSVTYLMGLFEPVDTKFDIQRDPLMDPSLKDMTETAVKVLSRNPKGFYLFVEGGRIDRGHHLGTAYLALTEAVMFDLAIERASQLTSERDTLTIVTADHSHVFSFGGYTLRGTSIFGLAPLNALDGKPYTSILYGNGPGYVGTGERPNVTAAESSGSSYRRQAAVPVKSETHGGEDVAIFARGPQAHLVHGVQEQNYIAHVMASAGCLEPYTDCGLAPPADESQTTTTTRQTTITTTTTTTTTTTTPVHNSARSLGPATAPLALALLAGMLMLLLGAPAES

[17] = biological target: 1-phosphatidylinositol 4,5-bisphosphate phosphodiesterase beta-3 (Homo sapiens, UniProt Q01970); assay: Fluorescence-based biochemical high throughput dose response assay to identify inhibitors of phospholipase C isozymes (PLC-B3).
[18] = biological target: T2, DNA dC->dU-editing enzyme APOBEC-3A (Homo sapiens, UniProt P31941); assay: SAR analysis of small molecule inhibitors of APOBEC3A DNA Deaminase via a fluorescence-based single-stranded DNA deaminase assay - Set 2.; assay type: functional; details: read-out: IC50_Mean
T2 sequence (P31941 whole entry): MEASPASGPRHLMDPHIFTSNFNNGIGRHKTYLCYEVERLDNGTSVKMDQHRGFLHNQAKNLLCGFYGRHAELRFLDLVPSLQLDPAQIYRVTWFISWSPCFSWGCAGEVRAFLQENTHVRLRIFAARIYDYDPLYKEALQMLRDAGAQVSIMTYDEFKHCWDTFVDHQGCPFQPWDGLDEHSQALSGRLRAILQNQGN

[19] = biological target: T2, DNA dC->dU-editing enzyme APOBEC-3A; assay: SAR analysis of small molecule inhibitors of APOBEC3A DNA Deaminase via a fluorescence-based single-stranded DNA deaminase assay.; assay type: functional; details: read-out: IC50_Mean
[20] = IC50 of Artemis nuclease activity blockers – biochemical, fluorescence intensity, dose response (AID 720701); assay type: functional;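 note: Artemis endonuclease enzyme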
[21] = biological target: T3, DNA dC->dU-editing enzyme APOBEC-3G (Homo sapiens, UniProt Q9HC16); assay: SAR analysis of small molecule inhibitors of APOBEC3G DNA Deaminase via a fluorescence-based single-stranded DNA deaminase assay - Set 2.; assay type: functional; details: read-out: IC50_Mean
T3 sequence (Q9HC16 whole entry): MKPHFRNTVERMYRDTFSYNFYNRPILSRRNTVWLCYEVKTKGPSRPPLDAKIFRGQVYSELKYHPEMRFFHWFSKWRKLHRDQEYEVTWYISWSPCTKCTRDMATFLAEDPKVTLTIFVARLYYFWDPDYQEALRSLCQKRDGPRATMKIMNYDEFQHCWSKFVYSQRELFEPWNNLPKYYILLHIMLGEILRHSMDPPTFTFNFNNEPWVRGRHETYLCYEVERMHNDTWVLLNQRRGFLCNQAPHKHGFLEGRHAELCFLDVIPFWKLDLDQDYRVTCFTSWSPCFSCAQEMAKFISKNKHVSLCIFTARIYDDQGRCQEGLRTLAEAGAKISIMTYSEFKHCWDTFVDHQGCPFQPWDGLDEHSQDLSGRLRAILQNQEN

Ephrin type-A receptor 4 = Ephrin type-A receptor 4 (Mus musculus, UniProt Q03137); assay: EphA4 ligand-binding antagonists – biochemical, colorimetric, mouse EphA4, primary screen (AID 689); assay type: functional
[22] = biological target: T4, Histone-lysine N-methyltransferase NSD2 (Homo sapiens, UniProt O96028); assay type: biochemical
T4 sequence (O96028 whole entry): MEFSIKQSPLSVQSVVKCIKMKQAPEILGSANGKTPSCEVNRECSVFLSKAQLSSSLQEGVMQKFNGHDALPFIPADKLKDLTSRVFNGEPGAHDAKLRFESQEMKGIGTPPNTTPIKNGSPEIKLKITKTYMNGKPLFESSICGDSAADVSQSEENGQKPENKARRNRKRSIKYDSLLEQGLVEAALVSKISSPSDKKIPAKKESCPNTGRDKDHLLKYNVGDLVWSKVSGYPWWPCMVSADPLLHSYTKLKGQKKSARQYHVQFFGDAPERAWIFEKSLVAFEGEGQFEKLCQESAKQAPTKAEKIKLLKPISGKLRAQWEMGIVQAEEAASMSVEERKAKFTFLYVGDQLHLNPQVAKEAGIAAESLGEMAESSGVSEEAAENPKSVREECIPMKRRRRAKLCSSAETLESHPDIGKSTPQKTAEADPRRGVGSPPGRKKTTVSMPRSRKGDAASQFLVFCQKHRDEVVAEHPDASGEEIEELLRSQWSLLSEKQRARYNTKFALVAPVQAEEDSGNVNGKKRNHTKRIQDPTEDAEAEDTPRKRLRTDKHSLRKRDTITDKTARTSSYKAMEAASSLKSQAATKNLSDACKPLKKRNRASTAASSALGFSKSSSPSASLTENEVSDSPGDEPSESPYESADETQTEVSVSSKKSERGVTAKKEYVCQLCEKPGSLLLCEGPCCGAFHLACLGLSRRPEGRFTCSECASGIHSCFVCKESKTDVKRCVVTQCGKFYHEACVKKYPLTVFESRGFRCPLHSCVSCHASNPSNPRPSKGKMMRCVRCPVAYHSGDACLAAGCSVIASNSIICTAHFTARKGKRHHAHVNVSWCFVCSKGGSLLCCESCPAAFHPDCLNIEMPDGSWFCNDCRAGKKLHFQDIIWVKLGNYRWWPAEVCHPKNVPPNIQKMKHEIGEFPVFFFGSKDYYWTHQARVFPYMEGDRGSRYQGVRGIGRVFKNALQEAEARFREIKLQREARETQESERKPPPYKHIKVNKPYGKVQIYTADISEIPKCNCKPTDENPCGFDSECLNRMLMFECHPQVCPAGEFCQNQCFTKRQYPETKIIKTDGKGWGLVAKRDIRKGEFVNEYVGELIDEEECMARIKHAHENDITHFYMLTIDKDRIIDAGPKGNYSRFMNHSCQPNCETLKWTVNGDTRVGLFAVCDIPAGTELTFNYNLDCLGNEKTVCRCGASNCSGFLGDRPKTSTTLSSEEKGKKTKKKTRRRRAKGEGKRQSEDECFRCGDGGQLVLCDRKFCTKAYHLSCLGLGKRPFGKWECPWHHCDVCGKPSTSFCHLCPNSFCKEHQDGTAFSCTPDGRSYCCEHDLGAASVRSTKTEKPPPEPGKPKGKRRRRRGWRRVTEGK

[23] = biological target: T3, DNA dC->dU-editing enzyme APOBEC-3G; assay: inhibition of APOBEC3G ssDNA deamination – biochemical, fluorescence, single-stranded DNA substrate, SAR follow-up (AID 602136); assay type: functional; details: read-out: IC50_Mean
[24] = biological target: 1-phosphatidylinositol 4,5-bisphosphate phosphodiesterase gamma-1 (Homo sapiens, UniProt P19174); assay: Counterscreen for inhibitors of phospholipase C isozymes (PLC-B3): Fluorescence-based biochemical high throughput dose response assay to identify inhibitors of phospholipase C isozymes (PLC-gamma1).
1-phosphatidylinositol 4,5-bisphosphate phosphodiesterase gamma-1, sequence (P19174 whole entry): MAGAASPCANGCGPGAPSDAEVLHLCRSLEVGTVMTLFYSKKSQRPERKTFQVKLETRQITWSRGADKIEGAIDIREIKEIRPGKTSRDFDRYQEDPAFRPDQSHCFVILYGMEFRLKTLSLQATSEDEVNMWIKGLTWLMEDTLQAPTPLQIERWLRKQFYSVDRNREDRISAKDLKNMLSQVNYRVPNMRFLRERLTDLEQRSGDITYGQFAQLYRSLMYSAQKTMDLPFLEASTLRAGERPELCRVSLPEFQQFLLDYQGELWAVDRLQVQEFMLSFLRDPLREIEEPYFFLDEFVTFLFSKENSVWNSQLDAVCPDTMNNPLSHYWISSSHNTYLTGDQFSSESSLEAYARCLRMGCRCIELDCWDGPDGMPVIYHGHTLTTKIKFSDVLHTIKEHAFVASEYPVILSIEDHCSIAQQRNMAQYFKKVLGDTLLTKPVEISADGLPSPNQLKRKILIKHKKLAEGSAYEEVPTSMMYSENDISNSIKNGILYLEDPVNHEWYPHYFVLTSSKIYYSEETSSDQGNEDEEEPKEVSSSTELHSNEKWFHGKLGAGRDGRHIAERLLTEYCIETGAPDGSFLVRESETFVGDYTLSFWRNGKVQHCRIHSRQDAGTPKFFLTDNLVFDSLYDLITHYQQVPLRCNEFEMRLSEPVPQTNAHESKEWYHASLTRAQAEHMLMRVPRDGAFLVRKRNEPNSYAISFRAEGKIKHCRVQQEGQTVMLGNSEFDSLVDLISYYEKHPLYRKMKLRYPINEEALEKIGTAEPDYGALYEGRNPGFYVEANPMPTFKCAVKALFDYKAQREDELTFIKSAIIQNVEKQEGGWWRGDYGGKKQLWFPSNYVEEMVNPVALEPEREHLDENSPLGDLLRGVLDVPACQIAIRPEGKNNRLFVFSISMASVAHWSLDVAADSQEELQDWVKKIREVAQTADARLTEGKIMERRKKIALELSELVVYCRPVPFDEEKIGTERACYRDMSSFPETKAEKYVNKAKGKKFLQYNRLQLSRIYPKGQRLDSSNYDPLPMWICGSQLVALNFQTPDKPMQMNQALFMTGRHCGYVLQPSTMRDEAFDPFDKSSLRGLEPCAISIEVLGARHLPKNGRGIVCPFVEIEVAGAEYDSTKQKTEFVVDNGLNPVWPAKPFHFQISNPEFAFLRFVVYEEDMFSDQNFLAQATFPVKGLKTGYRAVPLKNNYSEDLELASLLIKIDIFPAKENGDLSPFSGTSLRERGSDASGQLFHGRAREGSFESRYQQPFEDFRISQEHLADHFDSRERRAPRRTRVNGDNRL

[25] = biological target: Protein-tyrosine kinase 2-beta (Homo sapiens, UniProt Q14289);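 note: potency of inhibitors of PYK2 kinase phosphorylation of poly-GT substrate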
Protein-tyrosine kinase 2-beta, sequence (Q14289 whole entry): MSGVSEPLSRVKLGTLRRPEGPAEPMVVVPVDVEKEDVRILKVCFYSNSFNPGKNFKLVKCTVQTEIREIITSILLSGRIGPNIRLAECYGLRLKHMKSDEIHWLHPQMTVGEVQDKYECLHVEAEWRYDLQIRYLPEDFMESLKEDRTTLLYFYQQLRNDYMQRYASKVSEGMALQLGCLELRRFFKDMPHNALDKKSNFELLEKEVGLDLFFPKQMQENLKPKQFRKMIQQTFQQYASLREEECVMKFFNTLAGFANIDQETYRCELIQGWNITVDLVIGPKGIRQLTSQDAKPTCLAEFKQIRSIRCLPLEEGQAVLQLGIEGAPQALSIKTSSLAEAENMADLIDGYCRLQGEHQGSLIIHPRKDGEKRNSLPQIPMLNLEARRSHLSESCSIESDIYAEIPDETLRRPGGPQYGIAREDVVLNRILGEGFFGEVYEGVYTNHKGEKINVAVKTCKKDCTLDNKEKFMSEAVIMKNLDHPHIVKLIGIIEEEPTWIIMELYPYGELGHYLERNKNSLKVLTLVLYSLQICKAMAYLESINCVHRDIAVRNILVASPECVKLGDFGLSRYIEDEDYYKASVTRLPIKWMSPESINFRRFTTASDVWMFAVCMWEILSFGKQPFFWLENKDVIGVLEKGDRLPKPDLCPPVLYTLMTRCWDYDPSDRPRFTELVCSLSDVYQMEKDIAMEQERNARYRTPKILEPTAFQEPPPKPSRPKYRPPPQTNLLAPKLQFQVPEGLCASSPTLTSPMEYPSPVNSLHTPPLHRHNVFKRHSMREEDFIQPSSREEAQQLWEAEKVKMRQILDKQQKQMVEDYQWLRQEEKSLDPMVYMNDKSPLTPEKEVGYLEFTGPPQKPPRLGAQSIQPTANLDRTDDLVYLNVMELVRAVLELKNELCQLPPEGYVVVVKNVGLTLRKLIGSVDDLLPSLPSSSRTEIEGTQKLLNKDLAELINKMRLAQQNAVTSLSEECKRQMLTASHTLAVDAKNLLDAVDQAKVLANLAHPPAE

[26] = biological target: Intestinal-type alkaline phosphatase (Homo sapiens, UniProt P09923); assay: inhibition of human intestinal alkaline phosphatase – biochemical, dose response (AID 488876); assay type: functional
Troponin, cardiac muscle = Troponin, cardiac muscle (Homo sapiens, UniProt P19429+P45379+P63316); assay: compounds desensitizing RTF to calcium – biochemical, fluorescence, cardiac regulated thin filaments, triplicate IC50, dose response (AID 504742); assay type: protein-complex assay
ORF 73 = ORF 73 (Human herpesvirus 8, UniProt O40947); assay: KSHV LANA DNA-binding disruption – biochemical, fluorescence polarization, cherry-picked samples, dose response (AID 504725); set-up: species or system Human gammaherpesvirus 8;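 note: fluorescence polarization of a labeled DNA duplex reporting LANA DNA binding; potency is for inhibitors that block LANA binding to the DNA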
[27] = biological target: Bifunctional protein GlmU (Mycobacterium tuberculosis, UniProt P9WMN3); assay: Inhibitors of Mycobacterial Glucosamine-1-phosphate acetyl transferase (GlmU). Secondary screen.; set-up: species or system Mycobacterium tuberculosis H37Rv
Bifunctional protein GlmU, sequence (P9WMN3 whole entry): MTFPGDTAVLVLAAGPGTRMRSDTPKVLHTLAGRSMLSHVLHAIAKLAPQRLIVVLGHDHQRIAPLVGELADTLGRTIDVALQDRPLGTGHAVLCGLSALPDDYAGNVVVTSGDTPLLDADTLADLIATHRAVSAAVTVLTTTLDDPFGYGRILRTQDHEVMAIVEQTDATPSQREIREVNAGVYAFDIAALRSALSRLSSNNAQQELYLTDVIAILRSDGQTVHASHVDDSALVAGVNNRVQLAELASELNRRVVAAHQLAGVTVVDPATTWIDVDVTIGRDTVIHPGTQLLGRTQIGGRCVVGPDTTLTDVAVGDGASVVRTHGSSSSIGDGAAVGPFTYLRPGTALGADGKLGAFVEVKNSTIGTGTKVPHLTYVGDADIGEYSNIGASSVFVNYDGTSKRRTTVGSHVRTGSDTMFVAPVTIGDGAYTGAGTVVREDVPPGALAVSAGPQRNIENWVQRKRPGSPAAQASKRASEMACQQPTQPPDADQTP

[28] = SAR analysis of small molecule activators of Apaf-1 using a LZ-Caspase-9/Caspase-3 Fluorescent Selectivity assay - Set 2.; assay type: functional; details: read-out: EC50_Mean
[29] = biological target: T5, Apoptotic protease-activating factor 1 (Homo sapiens, UniProt O14727); assay: SAR analysis of small molecule Activators of Apaf-1 in a Fluorescent assay - set 2.; assay type: functional; details: read-out: EC50_Mean
T5 sequence (O14727 whole entry): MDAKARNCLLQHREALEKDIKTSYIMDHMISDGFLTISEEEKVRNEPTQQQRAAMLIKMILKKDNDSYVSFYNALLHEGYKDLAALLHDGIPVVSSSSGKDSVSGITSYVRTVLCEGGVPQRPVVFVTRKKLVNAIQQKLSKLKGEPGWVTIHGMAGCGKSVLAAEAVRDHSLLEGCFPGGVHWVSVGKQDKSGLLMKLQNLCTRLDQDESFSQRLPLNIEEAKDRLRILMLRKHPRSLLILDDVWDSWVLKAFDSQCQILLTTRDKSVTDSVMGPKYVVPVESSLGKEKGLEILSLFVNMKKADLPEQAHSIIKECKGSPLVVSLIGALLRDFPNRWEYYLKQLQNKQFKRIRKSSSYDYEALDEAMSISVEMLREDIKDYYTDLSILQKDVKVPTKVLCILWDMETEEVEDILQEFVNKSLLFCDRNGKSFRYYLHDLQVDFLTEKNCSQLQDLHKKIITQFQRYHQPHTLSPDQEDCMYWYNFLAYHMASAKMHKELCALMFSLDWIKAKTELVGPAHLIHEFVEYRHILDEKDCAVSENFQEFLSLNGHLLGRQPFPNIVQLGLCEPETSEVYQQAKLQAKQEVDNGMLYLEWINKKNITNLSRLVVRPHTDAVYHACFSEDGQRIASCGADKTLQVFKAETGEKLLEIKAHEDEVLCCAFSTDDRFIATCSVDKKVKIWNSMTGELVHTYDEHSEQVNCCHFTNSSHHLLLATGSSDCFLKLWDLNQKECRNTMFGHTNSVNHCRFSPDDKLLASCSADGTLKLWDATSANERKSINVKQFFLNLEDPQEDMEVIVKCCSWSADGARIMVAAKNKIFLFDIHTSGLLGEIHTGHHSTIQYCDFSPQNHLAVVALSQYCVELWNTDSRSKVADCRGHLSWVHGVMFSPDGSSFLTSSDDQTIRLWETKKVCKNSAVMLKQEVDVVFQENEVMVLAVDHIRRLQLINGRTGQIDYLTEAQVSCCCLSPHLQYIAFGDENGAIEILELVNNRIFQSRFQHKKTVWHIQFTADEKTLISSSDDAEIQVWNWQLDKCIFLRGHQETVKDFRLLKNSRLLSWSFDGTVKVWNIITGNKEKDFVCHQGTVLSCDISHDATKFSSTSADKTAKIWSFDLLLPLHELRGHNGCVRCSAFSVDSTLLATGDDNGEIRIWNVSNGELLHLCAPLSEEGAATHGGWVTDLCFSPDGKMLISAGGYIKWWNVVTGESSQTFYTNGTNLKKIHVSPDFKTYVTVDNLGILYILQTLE

Compound: Cc1cccc(-c2oc3ccc(-c4ccc5c(c4)OCO5)cc3c2C#Cc2cncn2C)c1
- CC50 [1]: > 44.8 µM (active)
- CC50 [2]: > 40 µM (active)
- CC50 [3]: > 50 µM (active)
- CC50 [4]: > 93 µM (active)
- CC50 [5]: > 50 µM (active)
- CC50 [6]: > 50 µM (active)
- CC50 [7]: 34.6 µM (active)
- CC50 [8]: 43.8 µM (active)
- CC50 [9]: 85.2 µM (active)
- AC50 [10]: 21.8 µM (active)
- AC50 [11]: 5.28 µM (active)
- CC50 [12]: 42.3 µM (active)

Compound: N#CC(c1ccc(F)cc1)c1c(Br)cnn(Cc2cccc3ccccc23)c1=O (configuration not stated)
- IC50 [13]: 0.24 µM (active)
- IC50 [14]: 0.24 µM (active)

Compound: CC(C(=O)O)N1C(=O)/C(=C/C=C/c2ccco2)SC1=S (configuration not stated)
- IC50 [15]: > 100 µM (inactive)
- IC50 [16]: 10 µM (active)
- IC50 [17]: > 122 µM (inactive)
- IC50 [18]: 1.21 µM (active)
- IC50 [19]: 1.19 µM (active)
- IC50 [20]: > 20 µM (inactive)
- IC50 [21]: 0.884 µM (active)
- IC50 (Ephrin type-A receptor 4): 2.79 µM (active)
- AC50 [22]: 1.63 µM (active)
- IC50 [23]: 2.08 µM (active)
- IC50 [24]: > 122 µM (inactive)
- IC50 [25]: 1.07 µM (active)
- IC50 [26]: > 100 µM (inactive)
- IC50 (Troponin, cardiac muscle): > 71.5 µM (inactive)
- AC50 (ORF 73): 45.6 µM (active)
- IC50 [27]: 61.4 µM (active)

Compound: COc1ccc(C2=NOC(C(=O)O)C2)cc1 (configuration not stated)
- EC50 [28]: > 100 µM (inactive)
- EC50 [29]: > 100 µM (inactive)
